Reference: the CheMixHub ionic liquid set

Experiment: xn = mol fraction of the nth substance listed

CCCCC[N+](CCCCC)(CCCCC)CCCCC.[Br-] + CCCCCCCCCCCC[N+](C)(C)C.[Br-] + O
viscosity [mPa·s], 100 kPa
Conditions | x2 = 5.425e-05, x1 = 0.0001802 | x2 = 0.0001085, x1 = 0.0001801 | x2 = 0.0001627, x1 = 0.0001801 | x2 = 0.000217, x1 = 0.0001801 | x2 = 0.0002712, x1 = 0.0001801 | x2 = 0.0003254, x1 = 0.0001801 | x2 = 0.0003796, x1 = 0.0001801 | x2 = 0.0004339, x1 = 0.0001801 | x2 = 0.0004881, x1 = 0.0001801 | x2 = 0.0005422, x1 = 0.0001801
293.15 K | 1.057 | 1.059 | 1.06 | 1.061 | 1.062 | 1.062 | 1.063 | 1.063 | 1.063 | 1.064
298.15 K | 0.943 | 0.944 | 0.945 | 0.946 | 0.948 | 0.949 | 0.95 | 0.951 | 0.951 | 0.953
303.15 K | 0.825 | 0.826 | 0.826 | 0.827 | 0.827 | 0.827 | 0.828 | 0.828 | 0.828 | 0.829
308.15 K | 0.745 | 0.746 | 0.746 | 0.746 | 0.747 | 0.747 | 0.747 | 0.748 | 0.748 | 0.749
313.15 K | 0.679 | 0.68 | 0.681 | 0.681 | 0.682 | 0.682 | 0.682 | 0.682 | 0.683 | 0.683
318.15 K | 0.624 | 0.625 | 0.625 | 0.625 | 0.626 | 0.626 | 0.626 | 0.626 | 0.626 | 0.627

OCC(O)CO + CCCCCCCCCCCC[P+](CC)(CC)CC.N#Cc1ccc[n-]1
100 kPa, x2 = 0
Conditions | viscosity [mPa·s]
293.15 K | 1360
298.15 K | 860
303.15 K | 542
313.15 K | 217

II + CCCCCCCCCCCC[n+]1ccn(C)c1.[I-]
Conditions | electrical conductivity [S/m]
298 K, 101.3 kPa, x2 = 0.2 | 2.02

CCCCOC(C)=O + CCCCCCCCn1cc[n+](C)c1.F[B-](F)(F)F
Conditions | viscosity [mPa·s]
298.15 K, 101 kPa, x1 = 1 | 0.7

[Br-].[Li+] + CCCCCCCCn1cc[n+](C)c1.N#C[S-] + CN1CCCC1=O
298.15 K, 101 kPa
Conditions | viscosity [mPa·s]
x2 = 0, x1 = 0.02595 | 2.385
x2 = 0, x1 = 0.05088 | 3.13
x2 = 0, x1 = 0.07505 | 4.349

CCCCCCCC[n+]1ccc2ccccc2c1.O=S(=O)([N-]S(=O)(=O)C(F)(F)F)C(F)(F)F + CCCCCCO
101 kPa
Conditions | viscosity [mPa·s]
318.15 K, x2 = 0.2857 | 48.99
338.15 K, x2 = 0.6854 | 6.58

[Br-].[Li+] + CCCCCC[n+]1ccn(C)c1.N#C[S-] + CN1CCCC1=O
298.15 K, 101 kPa
Conditions | viscosity [mPa·s]
x2 = 0, x1 = 0.02735 | 2.37
x2 = 0, x1 = 0.05202 | 3.192
x2 = 0, x1 = 0.07626 | 4.329

CCCCCCCC[n+]1ccc2ccccc2c1.O=S(=O)([N-]S(=O)(=O)C(F)(F)F)C(F)(F)F + CCCCO
101 kPa
Conditions | viscosity [mPa·s]
298.15 K, x2 = 0.3134 | 122.9
298.15 K, x2 = 0.5032 | 55.19
308.15 K, x2 = 0.3134 | 71.3
308.15 K, x2 = 0.6915 | 15.21
318.15 K, x2 = 0.7937 | 6.33
328.15 K, x2 = 0.1708 | 45.14
338.15 K, x2 = 0.3134 | 21.01
338.15 K, x2 = 0.6915 | 5.91
338.15 K, x2 = 0.7937 | 3.66

CC(=O)CCC(=O)O + CCCC[N+](CCCC)(CCCC)CCCC.[Cl-]
Conditions | electrical conductivity [S/m] | viscosity [mPa·s]
293.15 K, 101.33 kPa, x2 = 0.3333 | – | 609
298.15 K, 101.33 kPa, x2 = 0.3333 | – | 405
303.15 K, 101.33 kPa, x2 = 0.3333 | – | 276
308.15 K, 101.33 kPa, x2 = 0.3333 | – | 195
313.15 K, 101.33 kPa, x2 = 0.3333 | – | 141
318.15 K, 101.33 kPa, x2 = 0.3333 | – | 105
323.15 K, 101.33 kPa, x2 = 0.3333 | – | 79
328.15 K, 101.33 kPa, x2 = 0.3333 | – | 61
333.15 K, 101 kPa, x1 = 0.75 | 0.177 | 17.47
333.15 K, 101.33 kPa, x2 = 0.3333 | – | 48
338.15 K, 101.33 kPa, x2 = 0.3333 | – | 39
343.15 K, 101 kPa, x1 = 0.75 | 0.238 | –
343.15 K, 101.33 kPa, x2 = 0.3333 | – | 32
348.15 K, 101.33 kPa, x2 = 0.3333 | – | 26
353.15 K, 101.33 kPa, x2 = 0.3333 | – | 22

O=C(O)CC(O)C(=O)O (centres undefined) + CCCC[N+](CCCC)(CCCC)CCCC.[Cl-] + O
100 kPa, x2 = 0.1428, x1 = 0.1428
Conditions | electrical conductivity [S/m] | viscosity [mPa·s]
293.15 K | 0.0722 | 283
303.15 K | 0.113 | 191
313.15 K | 0.173 | 133
323.15 K | 0.257 | 94
333.15 K | 0.373 | 68.1

NCCNCCN + CCCC[n+]1ccn(C)c1.F[B-](F)(F)F
101.3 kPa
Conditions | viscosity [mPa·s]
298.15 K, x2 = 0 | 5.52
298.15 K, x2 = 0.3995 | 23.66
298.15 K, x2 = 0.5905 | 40.1
303.15 K, x2 = 0.2998 | 14.59
303.15 K, x2 = 0.4992 | 26.4
303.15 K, x2 = 0.5905 | 33.6
303.15 K, x2 = 0.6974 | 44.2
303.15 K, x2 = 0.8948 | 69.1
308.15 K, x2 = 0.2998 | 12.47
313.15 K, x2 = 0.1986 | 7.86
313.15 K, x2 = 0.3995 | 14.5
313.15 K, x2 = 0.4992 | 19.06
313.15 K, x2 = 0.6974 | 30.9
318.15 K, x2 = 0.051 | 3.95
323.15 K, x2 = 0.2998 | 8.65
323.15 K, x2 = 0.3995 | 11.33
323.15 K, x2 = 0.5905 | 18.26
328.15 K, x2 = 0.2998 | 7.68
328.15 K, x2 = 0.3995 | 9.9
328.15 K, x2 = 0.4992 | 12.63
328.15 K, x2 = 0.6974 | 19.4
333.15 K, x2 = 0.1986 | 4.89
333.15 K, x2 = 0.2998 | 6.68
333.15 K, x2 = 0.4992 | 11.19
333.15 K, x2 = 0.6974 | 17.57
333.15 K, x2 = 0.9496 | 24.5

O=S(=O)([O-])C(F)(F)F.[Li+] + CCCC[n+]1ccn(C)c1.N#C[N-]C#N
electrical conductivity [S/m], 101 kPa
Conditions | x2 = 0.8612 | x2 = 0.8907 | x2 = 0.9197 | x2 = 0.9504 | x2 = 0.9799
288.15 K | 0.236 | – | 0.387 | 0.489 | 0.591
298.15 K | 0.399 | 0.521 | 0.625 | 0.776 | 0.91
333.15 K | 1.4 | 1.72 | 1.91 | 2.25 | 2.55

[Br-].[Li+] + CCCC[n+]1ccn(C)c1.N#C[S-] + CN1CCCC1=O
298.15 K, 101 kPa
Conditions | viscosity [mPa·s]
x2 = 0, x1 = 0.02626 | 2.359
x2 = 0, x1 = 0.05114 | 3.124
x2 = 0, x1 = 0.07535 | 4.344

CCCCOC(C)=O + CCCC[n+]1ccn(C)c1.O=S(=O)([N-]S(=O)(=O)C(F)(F)F)C(F)(F)F
Conditions | electrical conductivity, x1 = 0.8928 [S/m] | electrical conductivity, x1 = 0.9456 [S/m] | viscosity, x1 = 0.313 [mPa·s] | viscosity, x1 = 0.8928 [mPa·s] | viscosity, x1 = 0.9456 [mPa·s]
298.15 K, 100 kPa | 0.373 | 0.163 | – | 1.47 | 1.092
318.15 K, 100.7 kPa | – | – | 10 | – | –

N[C@@H](CO)C(=O)O + CCCC[n+]1ccn(C)c1.[Br-] + O
viscosity [mPa·s], 101.3 kPa
Conditions | x1 = 0.0003603, x2 = 0 | x1 = 0.0007203, x2 = 0 | x1 = 0.001078, x2 = 0 | x1 = 0.00144, x2 = 0 | x1 = 0.001781, x2 = 0 | x1 = 0.002158, x2 = 0 | x1 = 0.002516, x2 = 0
293.15 K | 1.007 | 1.012 | 1.018 | 1.023 | 1.028 | 1.033 | 1.039
298.15 K | 0.897 | 0.902 | 0.907 | 0.911 | 0.916 | 0.92 | 0.925
303.15 K | 0.804 | 0.809 | 0.813 | 0.818 | 0.822 | 0.827 | 0.831
308.15 K | 0.727 | 0.73 | 0.735 | 0.739 | 0.744 | 0.748 | 0.753
313.15 K | 0.661 | 0.664 | 0.668 | 0.673 | 0.677 | 0.682 | 0.686

Oc1cccnc1 + CCCC[n+]1ccn(C)c1.[Cl-]
Conditions | viscosity [mPa·s]
293.15 K, 100 kPa, x1 = 0.333 | 179.1

II + CCCC[n+]1ccn(C)c1.[I-]
Conditions | electrical conductivity [S/m]
298 K, 101.3 kPa, x2 = 0.333 | 3.07
